Patent publication US11931429B2, “Chemiluminescent probes for diagnostics and in vivo imaging” (RAMOT AT TEL-AVIV UNIVERSITY LTD., priority 2016, dated 2024)
“Also recorded” adds a separate entry of the source.

Key:
[1] = Light-induced decomposition under normal room illumination, monitored by RP-HPLC; format: physicochemical; conditions: PBS pH 7.4, normal room illumination
Procedure: Probes (300 μM) were incubated in PBS (100 mM), pH 7.4, at ambient temperature.
Light-induced decomposition of dioxetane-dye conjugates. While working on the synthesis of the dioxetane-fluorophore conjugates, we encountered an unexpected phenomenon. Although Probe 1 seemed to be photostable, Probes 2 and 3 appeared to decompose under normal room illumination conditions. We measured the photostability of the probes in aqueous solution (PBS, pH 7.4) under normal room illumination. The light-induced decomposition was monitored over several hours by a RP-HPLC assay (FIG. 2).

β-galactosidase [2] = tested on: β-galactosidase
Procedure: Spectra were recorded in PBS (100 mM), pH 7.4, in the presence of 1.5 units/mL β-galactosidase (continuous lines). Dotted line is the fluorescence emission spectrum (DCL—direct chemiluminescence).
Fluorescence and chemiluminescence were recorded on Molecular Devices Spectramax i3x.
Chemiluminescence parameters measured for Probes 1, 2 and 3 and their ability to detect and image β-galactosidase. Next, we measured the light emission of the probes, as a function of time, in the presence and in the absence of β-galactosidase.
The chemiluminescence quantum yield (ϕCL) of probes 2 and 3 was calculated using that of Probe 1 as a known standard (Edwards et al., 1994).

β-galactosidase [3] = conditions: Probe 1, known standard (Edwards et al., 1994); cited from earlier work

Question: For `COC1(c2cccc(O[C@@H]3OC(CO)[C@H](O)[C@H](O)C3O)c2Cl)OOC12C1CC3CC(C1)CC2C3` (stereo partly shown) [Probe 1, reference compound], which “photostability under normal room illumination” value [1] is on record?
Answer: photostable; also recorded: unaffected by light

Question: And the “λmax [nm] (chemiluminescence emission)” value (β-galactosidase [2]; 1 μM, PBS (100 mM) pH 7.4, 1.5 units/mL β-galactosidase)?
Answer: 470 nm

Question: And the “Relative ΦCL” value (β-galactosidase [2]; relative to Probe 1)?
Answer: 1

Question: What about the “ΦCL (chemiluminescence quantum yield)” value (β-galactosidase [3]) of the same compound?
Answer: 3.3 × 10^−5
